Test results taken from ChEMBL document CHEMBL4359837, “Discovery of 2-(4-Chloro-3-(trifluoromethyl)phenyl)-N-(4-((6,7-dimethoxyquinolin-4-yl)oxy)phenyl)acetamide (CHMFL-KIT-64) as a Novel Orally Available Potent Inhibitor against Broad-Spectrum Mutants of c-KIT Kinase for Gastrointestinal Stromal Tumors” (J Med Chem, 2019).
Blank lines part the entries; values can stand above or below the compound they belong to. The source made the active and inactive calls. The calls are words filed in the database; no cut-off is given here.

Assays:
Mus musculus [1] = species: Mus musculus; experiment: Inhibition of c-KIT D816E mutant in mouse BAF3(transformed) cells assessed as growth inhibition after 72 hrs by CCK8 assay
[2] = test system: Mast/stem cell growth factor receptor Kit (Homo sapiens), P10721 [UNDEFINED MUTATION]; settings: GISTT1, 0.1 uM
Description: Inhibition of c-KIT 560 to 578 deletion/T670I mutant in human GISTT1 cells assessed as reduction in ERK phosphorylation at T204 residue at 0.1 uM measured after 2 hrs by Western blot analysis

Mus musculus [3] = species: Mus musculus; experiment: Inhibition of c-KIT V654A/V559D double mutant in mouse BAF3(transformed) cells assessed as growth inhibition after 72 hrs by CCK8 assay
[4] = test system: Mast/stem cell growth factor receptor Kit (Homo sapiens), P10721 [V559D]; settings: Mus musculus
Description: Inhibition of c-KIT V559D mutant in mouse BAF3(transformed) cells assessed as growth inhibition after 72 hrs by CCK8 assay

Mus musculus [5] = species: Mus musculus; experiment: Inhibition of c-KIT T670E mutant in mouse BAF3(transformed) cells assessed as growth inhibition after 72 hrs by CCK8 assay
GISTT1 [6] = type: functional, Homo sapiens; settings: for inhibition in vivo at 20 mg/kg/day: Mus musculus, GISTT1, po, 672 h, read-out: TGI
[7] = test system: Mast/stem cell growth factor receptor Kit (Homo sapiens), P10721 [UNDEFINED MUTATION]; settings: GISTT1, 0.1 uM; remark: listed apart in the source
Description: Inhibition of c-KIT 560 to 578 deletion/T670I mutant in human GISTT1 cells assessed as reduction in STAT3 phosphorylation at Y705 residue at 0.1 uM measured after 2 hrs by Western blot analysis

Mus musculus [8] = species: Mus musculus; experiment: Inhibition of c-KIT S709F mutant in mouse BAF3(transformed) cells assessed as growth inhibition after 72 hrs by CCK8 assay
[9] = test system: Mast/stem cell growth factor receptor Kit (Homo sapiens), P10721 [UNDEFINED MUTATION]; settings: GISTT1, 0.1 uM; remark: listed apart in the source
Description: Inhibition of c-KIT 560 to 578 deletion mutant in human GISTT1 cells assessed as reduction in ERK phosphorylation at T204 residue at 0.1 uM measured after 2 hrs by Western blot analysis

[10] = molecular target: Mast/stem cell growth factor receptor Kit (Mus musculus) (UniProt P05532); experiment: Inhibition of c-KIT in mouse BAF3(transformed) cells assessed as growth inhibition after 72 hrs by CCK8 assay
[11] = test system: Mast/stem cell growth factor receptor Kit (Homo sapiens), P10721 [UNDEFINED MUTATION]; settings: GISTT1, 0.1 uM; remark: listed apart in the source
Description: Inhibition of c-KIT 560 to 578 deletion/T670I mutant in human GISTT1 cells assessed as reduction in ERK phosphorylation at T202 residue at 0.1 uM measured after 2 hrs by Western blot analysis

Mus musculus [12] = species: Mus musculus; experiment: Inhibition of c-KIT T670I/V559D double mutant in mouse BAF3(transformed) cells assessed as growth inhibition after 72 hrs by CCK8 assay
[13] = Growth inhibition of mouse BAF3 cells measured after 72 hrs by CCK8 assay; type: cell-based
[14] = test system: Mast/stem cell growth factor receptor Kit (Homo sapiens), P10721 [D816H]; settings: Mus musculus
Description: Inhibition of c-KIT D816H mutant in mouse BAF3(transformed) cells assessed as growth inhibition after 72 hrs by CCK8 assay

[15] = Growth inhibition of human GIST48B cells after 72 hrs by CCK8 assay; type: functional
[16] = test system: Mast/stem cell growth factor receptor Kit (Homo sapiens), P10721 [D816V]; settings: Mus musculus
Description: Inhibition of c-KIT D816V mutant in mouse BAF3(transformed) cells assessed as growth inhibition after 72 hrs by CCK8 assay

[17] = test system: Mast/stem cell growth factor receptor Kit (Homo sapiens), P10721 [D820Y]; settings: Mus musculus
Description: Inhibition of c-KIT D820Y mutant in mouse BAF3(transformed) cells assessed as growth inhibition after 72 hrs by CCK8 assay

[18] = test system: Mast/stem cell growth factor receptor Kit (Homo sapiens), P10721 [UNDEFINED MUTATION]; settings: 0.1 uM
Description: Inhibition of c-KIT 560 to 578 deletion/T670I mutant in human GIST5R assessed as reduction in pS6 phosphorylation at S235 residue at 0.1 uM measured after 2 hrs by Western blot analysis

Mus musculus [19] = species: Mus musculus; experiment: Inhibition of c-KIT D820G mutant in mouse BAF3(transformed) cells assessed as growth inhibition after 72 hrs by CCK8 assay
[20] = Antitumor activity against mouse BAF3(transformed) cells harboring c-KIT T670I mutant implanted in BALB/c nu mouse assessed as tumor growth inhibition at 40 mg/kg/day, po administered via gavage for 11 days relative to control; type: functional; settings: 264 h, read-out: TGI
[21] = test system: Mast/stem cell growth factor receptor Kit (Homo sapiens), P10721 [D820E]; settings: Mus musculus
Description: Inhibition of c-KIT D820E mutant in mouse BAF3(transformed) cells assessed as growth inhibition after 72 hrs by CCK8 assay

[22] = molecular target: RAC-alpha serine/threonine-protein kinase (Homo sapiens) (UniProt P31749); settings: GISTT1, 0.1 uM
Description: Inhibition of AKT autophosphorylation at T308 residue in human GISTT1 cells harboring c-KIT 560 to 578 deletion mutant at 0.1 uM measured after 2 hrs by Western blot analysis

[23] = test system: Mast/stem cell growth factor receptor Kit (Homo sapiens), P10721 [A829P]; settings: Mus musculus
Description: Inhibition of c-KIT A829P mutant in mouse BAF3(transformed) cells assessed as growth inhibition after 72 hrs by CCK8 assay

GISTT1 [24] = type: functional, Homo sapiens
[25] = Half life in Beagle dog at 1 mg/kg, iv by LC-MS/MS analysis; type: ADME, organism-based, Canis lupus familiaris; settings: in vivo
[26] = Half life in mouse at 10 mg/kg, po by LC-MS/MS analysis; type: ADME, organism-based; settings: in vivo
Mus musculus [27] = type: functional, organism-based; settings: BALB/c, 80 mg/kg, TDE = time-dependent effect
[28] = Tmax in mouse at 1 mg/kg, iv by LC-MS/MS analysis; type: ADME, organism-based; settings: in vivo
Mus musculus [29] = type: functional, organism-based; settings: BALB/c, 80 mg/kg, TDE = time-dependent effect; remark: listed apart in the source
[30] = molecular target: T1, Mast/stem cell growth factor receptor Kit (Homo sapiens, UniProt P10721, 560-578DEL/T670I); type: cell-based, GISTT1
[31] = molecular target: T1, Mast/stem cell growth factor receptor Kit; type: cell-based, GISTT1; remark: listed apart in the source
[32] = test system: Mast/stem cell growth factor receptor Kit (Homo sapiens), P10721 [L576P]; settings: Mus musculus
[33] = molecular target: T2, Mast/stem cell growth factor receptor Kit (Homo sapiens, UniProt P10721, 560-578DEL); type: cell-based, GISTT1
[34] = Cmax in Sprague-Dawley rat at 1 mg/kg, iv by LC-MS/MS analysis; type: ADME, organism-based; parameters: dose 1 mg/kg, route intravenous; settings: in vivo
[35] = molecular target: Epithelial discoidin domain-containing receptor 1 (Homo sapiens, UniProt Q08345); experiment: Inhibition of human GST-tagged DDR1 catalytic domain (440 to 876 residues) expressed in baculovirus expression system by Lanthascreen Eu-binding assay
[36] = molecular target: Proto-oncogene tyrosine-protein kinase receptor Ret (Homo sapiens, UniProt P07949); experiment: Binding affinity to wild-type human partial length RET (E713 to D1014 residues) expressed in bacterial expression system assessed as residual binding level at 1 uM by Kinomescan method relative to control
Mus musculus [37] = type: functional, organism-based; settings: BALB/c, 80 mg/kg
[38] = molecular target: Macrophage colony-stimulating factor 1 receptor (Homo sapiens, UniProt P07333); experiment: Inhibition of recombinant human His-tagged CSF1R cytoplasmic domain (538 to 910 residues) expressed in baculovirus expression system by Z-lyte assay
[39] = molecular target: Macrophage colony-stimulating factor 1 receptor (Mus musculus) (UniProt P09581); experiment: Inhibition of CSF1R in mouse BAF3(transformed) cells assessed as growth inhibition after 72 hrs by CCK8 assay
[40] = AUC (0 to t) in Sprague-Dawley rat at 1 mg/kg, iv by LC-MS/MS analysis; type: ADME, organism-based; settings: in vivo
[41] = Oral bioavailability in Beagle dog at 5 mg/kg by LC-MS/MS analysis; type: ADME, organism-based, Canis lupus familiaris; settings: in vivo
[42] = molecular target: T1, Mast/stem cell growth factor receptor Kit; type: cell-based
[43] = molecular target: T2, Mast/stem cell growth factor receptor Kit; type: cell-based, GISTT1; remark: listed apart in the source
Mus musculus [44] = experiment: Antitumor activity against mouse BAF3(transformed) cells harboring c-KIT Y823D mutant implanted in BALB/c nu mouse assessed as tumor growth inhibition administered via oral gavage for 9 days; type: functional
[45] = test system: Mast/stem cell growth factor receptor Kit (Homo sapiens), P10721 [UNDEFINED MUTATION]; settings: GISTT1
Description: Inhibition of c-KIT 560 to 578 deletion/T670I mutant in human GISTT1 cells assessed as growth inhibition after 72 hrs by CCK8 assay

[46] = Toxicity in BALB/c nu mouse implanted with mouse BAF3(transformed) cells harboring c-KIT D820G mutant assessed as change in body weight at 40 to 80 mg/kg/day, po administered via gavage for 9 days measured daily during compound dosing; type: organism-based; settings: in vivo, 216 h

Chain of Mast/stem cell growth factor receptor Kit (Homo sapiens), P10721 [UNDEFINED MUTATION] (P10721 whole entry, looked up, stated change not applied): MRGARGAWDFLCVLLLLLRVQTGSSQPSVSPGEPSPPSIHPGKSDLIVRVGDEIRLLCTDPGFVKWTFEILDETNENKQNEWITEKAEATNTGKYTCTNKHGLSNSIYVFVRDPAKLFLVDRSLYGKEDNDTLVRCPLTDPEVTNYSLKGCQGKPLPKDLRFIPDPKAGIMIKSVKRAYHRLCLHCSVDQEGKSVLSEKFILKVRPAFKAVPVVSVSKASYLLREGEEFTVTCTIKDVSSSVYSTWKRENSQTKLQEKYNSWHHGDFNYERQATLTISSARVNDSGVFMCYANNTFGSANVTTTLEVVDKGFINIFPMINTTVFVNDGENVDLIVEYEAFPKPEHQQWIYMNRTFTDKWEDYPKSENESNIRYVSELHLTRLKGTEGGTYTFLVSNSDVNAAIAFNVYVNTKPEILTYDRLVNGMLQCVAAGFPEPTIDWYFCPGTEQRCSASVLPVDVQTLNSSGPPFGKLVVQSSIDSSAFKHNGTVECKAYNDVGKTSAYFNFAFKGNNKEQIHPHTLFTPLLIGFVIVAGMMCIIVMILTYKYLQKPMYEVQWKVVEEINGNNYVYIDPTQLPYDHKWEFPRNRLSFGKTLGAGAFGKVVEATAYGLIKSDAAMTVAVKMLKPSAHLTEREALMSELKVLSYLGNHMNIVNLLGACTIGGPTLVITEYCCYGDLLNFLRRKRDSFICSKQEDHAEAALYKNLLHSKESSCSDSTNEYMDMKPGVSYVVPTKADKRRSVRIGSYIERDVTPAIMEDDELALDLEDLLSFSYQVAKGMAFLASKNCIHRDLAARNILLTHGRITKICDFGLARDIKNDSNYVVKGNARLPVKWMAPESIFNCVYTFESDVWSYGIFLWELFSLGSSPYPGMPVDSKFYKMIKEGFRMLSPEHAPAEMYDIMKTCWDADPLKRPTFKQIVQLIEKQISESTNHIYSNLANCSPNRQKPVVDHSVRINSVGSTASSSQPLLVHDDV
T1 sequence (P10721 whole entry, looked up, stated change not applied): as above
Chain of Mast/stem cell growth factor receptor Kit (Homo sapiens), P10721 [V559D] (P10721 whole entry V559D): as the sequence (P10721 whole entry, looked up, stated change not applied) above, with V559D counted along it
Chain of Mast/stem cell growth factor receptor Kit (Homo sapiens), P10721 [D820E] (P10721 whole entry D820E): as the sequence (P10721 whole entry, looked up, stated change not applied) above, with D820E counted along it
Chain of Mast/stem cell growth factor receptor Kit (Homo sapiens), P10721 [A829P] (P10721 whole entry A829P): as the sequence (P10721 whole entry, looked up, stated change not applied) above, with A829P counted along it

GI50 (Mus musculus [1]): 59 nM
inhibition [2]: Active
GI50 (Mus musculus [3]): 19 nM
GI50 [4]: 1 nM
GI50 (Mus musculus [5]): 89 nM
inhibition [7]: Active
GI50 (Mus musculus [8]): 28 nM
inhibition [9]: Active
GI50 [10]: 3 nM
inhibition [11]: Active
GI50 (Mus musculus [12]): 12 nM
GI50 [14]: 315 nM
GI50 [16]: 1720 nM
GI50 [17]: 172 nM
inhibition [18]: Active
GI50 (Mus musculus [19]): 389 nM
GI50 [21]: 93 nM
inhibition [22]: Active
GI50 [23]: 18 nM
SMILES: CCN(CC)CCNC(=O)c1c(C)[nH]c(/C=C2\C(=O)Nc3ccc(F)cc32)c1C [SUNITINIB]
inhibition in vivo at 20 mg/kg/day (GISTT1 [6]): 93.6%
GI50 at 72 h [13]: 1010 nM
GI50 [15]: 740 nM
inhibition in vivo at 40 mg/kg/day [20]: 96.7%

SMILES: COc1cc2nccc(Oc3ccc(NC(=O)Cc4ccc(Cl)c(C(F)(F)F)c4)cc3)c2cc1OC
GI50 (Mus musculus [1]): 16 nM
Activity (GISTT1 [24]): 0.14 g
GI50 (Mus musculus [3]): 42 nM
half-life [25]: 20.6 h
half-life [26]: 4.5 h
inhibition (Mus musculus [27]): Tde
Tmax [28]: 1.8 min
GI50 [4]: 6 nM
inhibition (Mus musculus [29]): Tde
EC50 [30]: < 100 nM
GI50 (Mus musculus [5]): 71 nM
TGI (GISTT1 [6]; Homo sapiens, 20 mg/kg): Dose-dependent effect
inhibition in vivo at 20 mg/kg/day (GISTT1 [6]): 59.4%
EC50 [31]: < 100 nM
GI50 [32]: 1 nM
EC50 [33]: < 100 nM
Cmax [34]: 660 ng/mL
GI50 (Mus musculus [8]): 17 nM
GI50 [10]: 1 nM
GI50 (Mus musculus [12]): 45 nM
IC50 [35]: 135 nM
GI50 at 72 h [13]: 5970 nM
GI50 [14]: 97 nM
Activity [36]: < 1%
inhibition (Mus musculus [37]): inactive
GI50 [15]: 1370 nM
IC50 [38]: 18 nM
GI50 [16]: 1730 nM
GI50 [39]: 3 nM
GI50 [17]: 3 nM
AUC(0-t) [40]: 2550 ng·h/mL
bioavailability [41]: 81%
EC50 [42]: < 100 nM
GI50 (Mus musculus [19]): 9 nM
inhibition in vivo at 40 mg/kg/day [20]: 90.2%
EC50 [43]: < 100 nM
GI50 [21]: 1 nM
TGI (Mus musculus [44]): Dose-dependent effect
GI50 [45]: 6 nM
Activity [46]: Non-Toxic
GI50 [23]: 22 nM
